In PubChem BioAssay (NCI):
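Exposure lasted 48 hours, with cells grown in 96-well plates and compounds tested at five concentrations. TGI: total growth inhibition.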

Key:
Assay in all cases: DTP human tumour cell line panel, 48 h
[1] = tested on: OVCAR-3 ovarian
[2] = tested on: SR leukemia
[3] = tested on: MOLT-4 leukemia
[4] = tested on: NCI-H226 lung
[5] = tested on: EKVX NSCLC
[6] = tested on: SK-MEL-5 melanoma
[7] = tested on: 786-0 renal
[8] = tested on: TK-10 renal
[9] = tested on: UACC-62 melanoma
[10] = tested on: SF-295 CNS
[11] = tested on: HT29 colon
[12] = tested on: UO-31 renal
[13] = tested on: HCC-2998 colon
[14] = tested on: SF-268 CNS
[15] = tested on: HS 578T breast
[16] = tested on: SN12C renal
[17] = tested on: U251 CNS
[18] = tested on: SK-OV-3 ovarian
[19] = tested on: MDA-N
[20] = tested on: DU-145 prostate
[21] = tested on: NCI-H460 lung
[22] = tested on: HCT-116 colon
[23] = tested on: K-562 leukemia
[24] = tested on: ACHN renal
[25] = tested on: M14 melanoma
[26] = tested on: SNB-75 CNS
[27] = tested on: OVCAR-8 ovarian
[28] = tested on: CCRF-CEM leukemia
[29] = tested on: OVCAR-4 ovarian
[30] = tested on: IGROV1 ovarian
[31] = tested on: KM12 colon
[32] = tested on: LOX IMVI melanoma
[33] = tested on: SW-620 colon
[34] = tested on: NCI-H23 lung
[35] = tested on: RPMI-8226 leukemia
[36] = tested on: HOP-92 NSCLC
[37] = tested on: HOP-62 NSCLC
[38] = tested on: T-47D breast
[39] = tested on: MDA-MB-231 breast
[40] = tested on: MDA-MB-435
[41] = tested on: NCI/ADR-RES ovarian
[42] = tested on: PC-3 prostate
[43] = tested on: MALME-3M melanoma
[44] = tested on: UACC-257 melanoma
[45] = tested on: SNB-19 CNS
[46] = tested on: RXF 393 renal
[47] = tested on: SF-539 CNS
[48] = tested on: CAKI-1 renal
[49] = tested on: HCT-15 colon
[50] = tested on: BT-549 breast
[51] = tested on: A498 renal
[52] = tested on: COLO 205 colon
[53] = tested on: HL-60(TB) leukemia
[54] = tested on: A549 NSCLC
[55] = tested on: SK-MEL-2 melanoma
[56] = tested on: MCF7 breast
[57] = tested on: OVCAR-5 ovarian
[58] = tested on: NCI-H522 lung
[59] = tested on: SK-MEL-28 melanoma

Work on `COc1nncc2[nH]c(-c3ccccc3)cc12` yielded a TGI [1] greater than 100 µM, a TGI [2] greater than 100 µM and a TGI [3] of 18.1 µM. It also gave a TGI [4] greater than 100 µM, a TGI [5] greater than 100 µM and a TGI [6] greater than 100 µM. For the same molecule, the TGI [7] was greater than 100 µM, the TGI [8] was greater than 100 µM and the TGI [9] was greater than 100 µM. For the same molecule, the TGI [10] was greater than 100 µM, the TGI [11] was greater than 100 µM and the TGI [12] was greater than 100 µM. For the same molecule, the TGI [13] was greater than 100 µM, the TGI [14] was greater than 100 µM and the TGI [15] was greater than 100 µM. It also gave a TGI [16] greater than 100 µM, a TGI [17] greater than 100 µM and a TGI [18] greater than 100 µM. It also gave a TGI [19] greater than 100 µM, a TGI [20] greater than 100 µM and a TGI [21] greater than 100 µM. The TGI [22] was greater than 100 µM, the TGI [23] was greater than 100 µM and the TGI [24] was greater than 100 µM. For the same molecule, the TGI [25] was greater than 100 µM, the TGI [26] was greater than 100 µM and the TGI [27] was greater than 100 µM. For the same molecule, the TGI [28] was greater than 100 µM, the TGI [29] was greater than 100 µM and the TGI [30] was greater than 100 µM. For the same molecule, the TGI [31] was greater than 100 µM, the TGI [32] was greater than 100 µM and the TGI [33] was greater than 100 µM. The TGI [34] was greater than 100 µM, the TGI [35] was greater than 100 µM and the TGI [36] was greater than 100 µM. For the same molecule, the TGI [37] was greater than 100 µM, the TGI [38] was greater than 100 µM and the TGI [39] was greater than 100 µM. It also gave a TGI [40] greater than 100 µM, a TGI [41] greater than 100 µM and a TGI [42] greater than 100 µM. For the same molecule, the TGI [43] was greater than 100 µM, the TGI [44] was greater than 100 µM and the TGI [45] was greater than 100 µM. It also gave a TGI [46] greater than 100 µM, a TGI [47] greater than 100 µM and a TGI [48] greater than 100 µM. It also gave a TGI [49] greater than 100 µM, a TGI [50] greater than 100 µM and a TGI [51] greater than 100 µM. For the same molecule, the TGI [52] was greater than 100 µM, the TGI [53] was greater than 100 µM and the TGI [54] was greater than 100 µM. The TGI [55] was greater than 100 µM, the TGI [56] was greater than 100 µM and the TGI [57] was greater than 100 µM.

`Cc1ccccc1OC(C)C(=O)NN1C(=O)CSC1c1ccccc1` (centres undefined) was tested, and the TGI [1] was greater than 100 µM, the TGI [2] was 48.8 µM and the TGI [3] was 25.3 µM. The TGI [58] was greater than 100 µM, the TGI [4] was greater than 100 µM and the TGI [5] was greater than 100 µM. For the same molecule, the TGI [6] was greater than 100 µM, the TGI [7] was greater than 100 µM and the TGI [8] was greater than 100 µM. It also gave a TGI [9] greater than 100 µM, a TGI [10] greater than 100 µM and a TGI [11] greater than 100 µM. For the same molecule, the TGI [12] was greater than 100 µM, the TGI [13] was greater than 100 µM and the TGI [14] was greater than 100 µM. The TGI [15] was greater than 100 µM, the TGI [16] was greater than 100 µM and the TGI [17] was greater than 100 µM. For the same molecule, the TGI [18] was greater than 100 µM, the TGI [19] was greater than 100 µM and the TGI [20] was greater than 100 µM. It also gave a TGI [21] greater than 100 µM, a TGI [22] greater than 100 µM and a TGI [23] greater than 100 µM. It also gave a TGI [24] greater than 100 µM, a TGI [25] greater than 100 µM and a TGI [26] greater than 100 µM. It also gave a TGI [27] greater than 100 µM, a TGI [29] greater than 100 µM and a TGI [30] greater than 100 µM. For the same molecule, the TGI [31] was greater than 100 µM, the TGI [32] was greater than 100 µM and the TGI [33] was greater than 100 µM. The TGI [34] was greater than 100 µM, the TGI [35] was greater than 100 µM and the TGI [36] was greater than 100 µM. For the same molecule, the TGI [37] was greater than 100 µM, the TGI [38] was greater than 100 µM and the TGI [39] was greater than 100 µM. The TGI [40] was greater than 100 µM, the TGI [41] was greater than 100 µM and the TGI [59] was greater than 100 µM. For the same molecule, the TGI [42] was greater than 100 µM, the TGI [43] was greater than 100 µM and the TGI [44] was greater than 100 µM. It also gave a TGI [45] greater than 100 µM, a TGI [46] greater than 100 µM and a TGI [47] greater than 100 µM. For the same molecule, the TGI [48] was greater than 100 µM, the TGI [49] was greater than 100 µM and the TGI [50] was greater than 100 µM. For the same molecule, the TGI [51] was greater than 100 µM, the TGI [52] was greater than 100 µM and the TGI [54] was greater than 100 µM. It also gave a TGI [55] greater than 100 µM, a TGI [56] greater than 100 µM and a TGI [57] greater than 100 µM.
